According to patent US10125100B2, “Kinase inhibitors” (Respivert Limited, priority 2014, dated 2018):

Assays:
[1] = tested on: patients with severe Crohn's disease; settings: over 8 weeks; cited from earlier work
c-Src = c-Src (Homo sapiens (Human), UniProt P12931); experiment: c-Src enzyme inhibition, Z-LYTE FRET; type: biochemical
Method in brief: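 Z-LYTE FRET peptide phosphorylation read as donor coumarin over acceptor fluorescein ratio after 1 hr protease development. Compounds (1–0.001 μg/mL) preincubated 2 hr at RT with enzyme; ATP solutions 60 μM for Syk, 800 μM for c-Src; kinase reaction 1 hr.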

Syk = Syk (Homo sapiens (Human), UniProt P43405); experiment: Syk enzyme inhibition, Z-LYTE FRET; type: biochemical
Method in brief: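 Syk or c-Src enzyme (3000 or 2000 ng/mL solutions) was preincubated 2 h at RT with compound solutions at 1, 0.1, 0.01 or 0.001 µg/mL. Z-LYTE FRET peptide (8 µM solution) and ATP (800 µM solution for c-Src, 60 µM for Syk) were then added for 1 h, followed by protease development for 1 h. Phosphorylation was read as the coumarin/fluorescein emission ratio.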

GSK 3α = GSK 3α (Homo sapiens (Human), UniProt P49840); experiment: GSK 3α enzyme inhibition (Method 2), Z-LYTE FRET; type: biochemical; settings: read-out: IC50 Values for Enzyme Inhibition GSK3α
Chain of GSK 3α (P49840 whole entry): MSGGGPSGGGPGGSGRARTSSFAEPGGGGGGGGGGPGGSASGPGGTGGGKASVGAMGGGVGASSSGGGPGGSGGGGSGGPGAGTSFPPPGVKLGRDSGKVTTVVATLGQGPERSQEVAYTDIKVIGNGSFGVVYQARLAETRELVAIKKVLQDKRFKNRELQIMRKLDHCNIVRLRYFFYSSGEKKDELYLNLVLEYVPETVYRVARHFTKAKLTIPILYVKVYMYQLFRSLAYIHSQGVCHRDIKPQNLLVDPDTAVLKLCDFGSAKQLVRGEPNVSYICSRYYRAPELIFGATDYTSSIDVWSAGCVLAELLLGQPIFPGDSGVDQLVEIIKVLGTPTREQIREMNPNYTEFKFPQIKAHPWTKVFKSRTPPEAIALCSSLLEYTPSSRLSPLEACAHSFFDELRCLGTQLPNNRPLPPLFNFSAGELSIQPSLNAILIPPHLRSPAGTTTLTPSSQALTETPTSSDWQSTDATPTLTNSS
Protocol: The enzyme inhibitory activities of compounds disclosed herein are determined by FRET using synthetic peptides labelled with both donor and acceptor fluorophores (Z-LYTE, Invitrogen Ltd., Paisley, UK).
The following two assay variants can be used for determination of GSK 3α inhibition.
The inhibitory activities of compounds of the invention against the GSK 3α enzyme isoform (Invitrogen), are evaluated by determining the level of activation/phosphorylation of the target peptide. The GSK3-α protein (500 ng/mL, 2.5 μL) is mixed with the test compound (2.5 μL at either 4 μg/mL, 0.4 μg/mL, 0.04 μg/mL, or 0.004 μg/mL) for 2 hr at RT. The FRET peptide (8 μM, 2.5 μL), which is a phosphorylation target for GSK3α, and ATP (40 μM, 2.5 μL) are then added to the enzyme/compound mixture and the resulting mixture incubated for 1 hr. Development reagent (protease, 5 μL) is added for 1 hr prior to detection in a fluorescence microplate reader (Varioskan® Flash, ThermoFisher Scientific).
In all cases, the site-specific protease cleaves non-phosphorylated peptide only and eliminates the FRET signal. Phosphorylation levels of each reaction are calculated using the ratio of coumarin emission (donor) over fluorescein emission (acceptor), for which high ratios indicate high phosphorylation and low ratios indicate low phosphorylation levels.
This method follows the same steps as Method 1 above, but utilises a shorter period of mixing of the test compound (105 minutes instead of 2 hours) with the GSK3-α protein. In addition, the concentrations of test compound employed are either 10 μg/mL, 1 μg/mL, 0.1 μg/mL, or 0.01 μg/mL

mitosis in PBMCs = experiment: (g) Cell mitosis assay; type: cell-based; settings: Homo sapiens, PBMC, 5 μg/mL
Method in brief: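 Healthy-donor PBMCs stimulated with 2% PHA for 48 hr, then exposed to test compounds at varying concentrations for 20 hr; demecolcine (0.1 μg/mL) added 2 hr before collection for metaphase arrest. Cells fixed/permeabilized, stained with anti-phospho-histone 3 and propidium iodide; mitotic cells counted by flow cytometry gating on lymphocytes.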

[2] = tested on: rheumatoid arthritis patients; settings: cited from earlier work
Crohn's patients = settings: transient, returning to baseline by week 8; cited from earlier work

Chain of c-Src (P12931 whole entry, looked up): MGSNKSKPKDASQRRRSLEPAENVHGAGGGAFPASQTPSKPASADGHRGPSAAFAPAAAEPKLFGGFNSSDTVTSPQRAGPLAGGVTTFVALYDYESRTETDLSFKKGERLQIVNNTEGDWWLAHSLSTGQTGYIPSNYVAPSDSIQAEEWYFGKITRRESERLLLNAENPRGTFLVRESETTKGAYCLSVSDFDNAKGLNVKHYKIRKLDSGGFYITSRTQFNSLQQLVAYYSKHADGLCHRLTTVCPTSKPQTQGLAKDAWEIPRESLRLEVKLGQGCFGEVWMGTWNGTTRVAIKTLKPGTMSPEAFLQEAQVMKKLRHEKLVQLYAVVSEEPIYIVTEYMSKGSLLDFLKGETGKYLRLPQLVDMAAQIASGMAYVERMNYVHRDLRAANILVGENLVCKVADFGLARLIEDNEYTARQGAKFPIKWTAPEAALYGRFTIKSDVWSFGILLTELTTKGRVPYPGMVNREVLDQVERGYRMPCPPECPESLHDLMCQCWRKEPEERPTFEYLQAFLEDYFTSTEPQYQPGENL

SMILES	IC50 (c-Src)	IC50 (Syk)	IC50 (GSK 3α)	inhibition at 5 µg/mL (mitosis in PBMCs)	further results
C/C(=N\N=C(N)N)c1cc(NC(=O)CCCCCCCCC(=O)Nc2cc(/C(C)=N/N=C(N)N)cc(/C(C)=N/N=C(N)N)c2)cc(/C(C)=N/N=C(N)N)c1.Cl.Cl.Cl.Cl [CNI-1493]	–	–	–	–	clinical score [1]: significant improvement in clinical score
COc1cc(Nc2cc(Oc3ccc(NC(=O)Nc4cc(C(C)(C)C)cc(NS(C)(=O)=O)c4OC)c4ccccc34)ccn2)ccc1C(=O)NCCCN1CCS(=O)(=O)CC1 [17(ah), 4-[[4-[[4-[[5-tert-butyl-3-(methanesulfonamido)-2-methoxy-phenyl]carbamoylamino]-1-naphthyl]oxy]-2-pyridyl]amino]-N-[3-(1,1-dioxo-1,4-thiazinan-4-yl)propyl]-2-methoxy-benzamide]	20 nM	57 nM	9190 nM	32.5%	–
COc1cc(Nc2cc(Oc3ccc(NC(=O)Nc4cc(C(C)(C)C)cc(NS(C)(=O)=O)c4OC)c4ccccc34)ccn2)ccc1C(=O)NCCCN1CC[S+]([O-])CC1 [17(ag), 4-[[4-[[4-[[5-tert-butyl-3-(methanesulfonamido)-2-methoxy-phenyl]carbamoylamino]-1-naphthyl]oxy]-pyridyl]amino]-2-methoxy-N-[3-(1-oxo-1,4-thiazan-4-yl)propyl]benzamide]	17 nM	105 nM	2740 nM	51.8%	–
COc1cc(Nc2ncc(F)c(Nc3ccc4c(n3)N(COP(=O)(O)O)C(=O)C(C)(C)O4)n2)cc(OC)c1OC [Fostamatinib]	–	–	–	–	clinical outcome [2]: improved clinical outcome; serum levels of IL-6 and MMP-3 [2]: reduced serum levels of IL-6 and MMP-3
Cc1ccc(-n2nc(C(C)(C)C)cc2NC(=O)Nc2ccc(OCCN3CCOCC3)c3ccccc23)cc1 [BIRB796]	–	–	–	–	clinical benefit, C-reactive protein levels (Crohn's patients): improvement in C-reactive protein levels
COc1cc(Nc2cc(Oc3ccc(NC(=O)Nc4cc(C(C)(C)C)cc(NS(C)(=O)=O)c4OC)c4ccccc34)ccn2)ccc1C(=O)NCCN1CCN(C)CC1 [17(a), 4-[[4-[[4-[[5-tert-butyl-3-(methanesulfonamido)-2-methoxy-phenyl]carbamoylamino]-1-naphthyl]oxy]-2-pyridyl]amino]-2-methoxy-N-[2-(4-methylpiperazin-1-yl)ethyl]benzamide]	16 nM	–	4000 nM	75.6%	–
